In the supplement of paper PMC10307832:

Experiments:
Assay in all cases: relative viability (nuclei count vs DMSO), 5 days (fraction); higher = more cells survive
Obatoclax + Foretinib = compound: COC1=CC(c2cc3ccccc3[nH]2)=N/C1=C\c1[nH]c(C)cc1C [Obatoclax] + COc1cc2c(Oc3ccc(NC(=O)C4(C(=O)Nc5ccc(F)cc5)CC4)cc3F)ccnc2cc1OCCCN1CCOCC1 [Foretinib] (partner 0.25 µM)
In short: (§1)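 After 5 days of treatment, lung cancer cells in 1536-well plates were fixed and stained in a single step (final 0.05% Triton X-100, 1% formaldehyde, 1 ug/ml Hoechst) and their nuclei counted on 4× images. Treatment had been applied by pin tool the day after seeding as one drug alone or as a fixed anchor-drug dose with five library-drug doses (not always all listed) in √10 steps. Relative viability is the nuclei count of treated wells divided by that of vehicle wells, and values are medians of duplicate plates.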

[1] = compound: CC1=CC(=NN1)NC2=CC(=NC(=N2)/C=C/C3=CC=CC=C3)N4CCN(CC4)C + NC(=O)Nc1cc(-c2cccc(F)c2)sc1C(=O)N[C@H]1CCCNC1 [AZD7762] (partner 0.2 µM)
In short: as §1

Bortezomib + Linsitinib = compound: CC(C)C[C@H](NC(=O)[C@H](Cc1ccccc1)NC(=O)c1cnccn1)B(O)O [Bortezomib] + C[C@]1(O)C[C@@H](c2nc(-c3ccc4ccc(-c5ccccc5)nc4c3)c3c(N)nccn32)C1 [Linsitinib] (partner 1 µM)
In short: as §1

Obatoclax + Alpelisib = compound: COC1=CC(c2cc3ccccc3[nH]2)=N/C1=C\c1[nH]c(C)cc1C [Obatoclax] + Cc1nc(NC(=O)N2CCC[C@H]2C(N)=O)sc1-c1ccnc(C(C)(C)C(F)(F)F)c1 [Alpelisib] (partner 2 µM)
In short: as §1

Cell Line	relative viability (Obatoclax + Foretinib; first compound 0.01 µM)	relative viability (Obatoclax + Foretinib; first compound 0.03162 µM)	relative viability (Obatoclax + Foretinib; first compound 0.1 µM)	relative viability (Obatoclax + Foretinib; first compound 0.3162 µM)	relative viability (Obatoclax + Foretinib; first compound 1 µM)	relative viability ([1]; first compound 0.08 µM)	relative viability ([1]; first compound 0.253 µM)	relative viability ([1]; first compound 0.8 µM)	relative viability ([1]; first compound 2.53 µM)	relative viability ([1]; first compound 8 µM)	relative viability (Bortezomib + Linsitinib; first compound 0.0002 µM)	relative viability (Bortezomib + Linsitinib; first compound 0.000632 µM)	relative viability (Bortezomib + Linsitinib; first compound 0.002 µM)	relative viability (Bortezomib + Linsitinib; first compound 0.006325 µM)	relative viability (Bortezomib + Linsitinib; first compound 0.02 µM)	relative viability (Obatoclax + Alpelisib; first compound 0.01 µM)	relative viability (Obatoclax + Alpelisib; first compound 0.03162 µM)	relative viability (Obatoclax + Alpelisib; first compound 0.1 µM)	relative viability (Obatoclax + Alpelisib; first compound 0.3162 µM)	relative viability (Obatoclax + Alpelisib; first compound 1 µM)
HARA	0.966	0.93	0.91	0.935	1	0.386	0.351	0.412	0.193	0.154	0.899	0.836	0.895	0.0675	0.0867	0.942	0.529	0.916	0.802	0.78
HCC-15	1.04	1.05	0.846	0.912	0.857	1.1	1.46	1.25	0.875	0.34	0.815	0.947	0.91	0.504	0.0972	0.844	0.777	0.827	0.856	0.609
HCC-78	0.532	0.53	0.608	0.553	0.59	0.628	0.746	0.868	0.401	0.249	0.509	0.394	0.458	0.128	0.18	0.314	0.35	–	0.26	0.321
HCC-366	0.932	0.922	0.916	0.549	0.919	0.247	0.302	0.245	0.0242	0.0179	0.494	0.574	0.677	0.51	0.0152	0.382	0.363	0.366	0.396	0.233
HCC-827	1.01	1.04	1.08	0.964	1.05	0.188	0.199	0.217	0.197	0.0973	0.913	0.949	0.821	0.896	0.141	0.949	0.931	0.957	0.984	0.964
HOP-62	1.16	0.933	1.11	1.04	1.06	0.673	0.615	0.778	0.385	0.159	1.04	1.02	0.352	0.465	0.052	0.903	0.771	0.951	1.02	1.21
LC-2-ad	0.997	0.876	0.869	0.897	0.525	0.778	0.928	0.676	0.16	0.12	0.798	–	0.811	0.151	0.127	0.892	0.931	0.884	0.477	0.655
LCLC-97TM1	0.996	0.954	0.873	0.872	0.9	0.177	0.251	0.236	0.139	0.0567	0.187	0.17	0.14	0.146	0.111	0.27	0.232	0.283	0.227	0.293
LCLC-103H	0.792	0.698	0.778	0.668	0.8	0.746	0.807	0.775	0.723	0.576	1.06	1.07	1.25	1.09	0.272	0.938	0.907	0.97	0.961	1.02
LK-2	1.12	1.28	1.51	1.26	1.11	0.245	0.364	0.323	0.0834	0.0556	0.409	0.551	0.353	0.17	0.142	1.07	1.13	1.43	1.07	1.03
LOU-NH91	0.918	0.917	0.787	0.904	0.819	0.782	0.834	0.733	0.518	0.336	0.995	0.86	0.383	0.285	0.294	0.741	0.651	0.66	0.643	0.636
LU99A	0.875	0.792	0.774	0.619	0.714	0.298	0.376	0.252	0.14	0.0858	0.55	–	0.599	0.337	0.149	0.626	0.641	0.567	0.3	0.2
LXF-289	0.91	0.988	1.05	0.932	1.02	1.06	1.11	1.04	0.685	0.102	0.946	0.968	1	0.0941	0.0652	1.01	0.944	1.04	1.04	0.963
NCI-H23	1.04	1	0.986	0.826	1.01	0.246	0.186	0.23	0.094	0.101	–	0.574	0.586	0.276	0.114	0.667	0.607	0.691	0.604	0.569
NCI-H322M	0.997	1.02	–	0.853	0.696	0.555	0.6	0.615	0.403	0.302	0.906	–	0.999	0.831	0.294	0.705	0.819	0.793	0.889	0.781
NCI-H358	0.664	0.847	0.668	0.415	0.311	0.574	0.528	0.424	0.195	0.154	0.755	0.622	0.625	0.162	0.141	0.925	0.848	0.635	0.336	0.283

Cell Line	relative viability (Obatoclax + Foretinib; first compound 0.01 µM)	relative viability (Obatoclax + Foretinib; first compound 0.03162 µM)	relative viability (Obatoclax + Foretinib; first compound 0.1 µM)	relative viability (Obatoclax + Foretinib; first compound 0.3162 µM)	relative viability (Obatoclax + Foretinib; first compound 1 µM)	relative viability ([1]; first compound 0.08 µM)	relative viability ([1]; first compound 0.253 µM)	relative viability ([1]; first compound 0.8 µM)	relative viability ([1]; first compound 2.53 µM)	relative viability ([1]; first compound 8 µM)	relative viability (Bortezomib + Linsitinib; first compound 0.0002 µM)	relative viability (Bortezomib + Linsitinib; first compound 0.000632 µM)	relative viability (Bortezomib + Linsitinib; first compound 0.002 µM)	relative viability (Bortezomib + Linsitinib; first compound 0.006325 µM)	relative viability (Bortezomib + Linsitinib; first compound 0.02 µM)	relative viability (Obatoclax + Alpelisib; first compound 0.01 µM)	relative viability (Obatoclax + Alpelisib; first compound 0.03162 µM)	relative viability (Obatoclax + Alpelisib; first compound 0.1 µM)	relative viability (Obatoclax + Alpelisib; first compound 0.3162 µM)	relative viability (Obatoclax + Alpelisib; first compound 1 µM)
NCI-H441	0.877	0.925	1.05	0.639	0.612	1.17	1.06	1.1	0.728	0.152	0.497	0.41	0.406	0.343	0.103	0.662	0.822	0.632	0.419	0.327
NCI-H460	0.993	1.01	0.947	0.456	0.157	0.6	0.72	0.681	0.372	0.0422	0.718	0.772	0.91	0.0249	0.0133	0.509	0.481	0.309	0.0452	0.0244
NCI-H596	0.758	0.798	0.823	0.535	0.492	1.07	1.14	1.04	0.583	0.279	0.894	0.813	1.09	0.233	0.18	0.481	0.437	0.469	0.402	0.401
NCI-H647	1.14	1.04	1.12	0.935	0.476	0.328	0.598	0.499	0.103	0.0452	1.09	1.28	1.12	0.0274	0.0402	1.09	1.3	0.875	0.265	0.148
NCI-H727	1.04	0.628	1.07	0.699	1.08	0.571	0.427	0.601	0.55	0.381	0.354	0.289	0.408	0.189	0.0878	0.575	0.578	0.405	0.475	0.245
NCI-H838	1.03	1.11	0.996	1.1	0.858	0.963	1.09	0.99	0.782	0.623	0.995	1.01	0.962	0.142	0.145	0.968	0.992	0.914	0.822	0.617
NCI-H1355	1.04	0.936	0.986	0.94	0.529	0.779	0.802	0.778	0.581	0.15	0.85	0.777	0.615	0.837	0.124	0.866	0.905	0.795	0.681	0.658
NCI-H1395	0.938	0.702	0.929	1.01	0.766	0.399	0.389	0.346	0.315	0.332	1.02	0.97	0.463	0.382	0.347	1.14	1.2	0.982	0.954	0.474
NCI-H1437	1.22	1.28	1.21	1.16	1.25	1.17	1.17	1.21	1.05	0.416	1.04	1.1	0.885	0.0922	0.101	0.97	0.922	0.962	1.01	0.88
NCI-H1651	0.766	0.734	0.774	0.47	0.42	0.437	0.483	0.463	0.335	0.0886	0.943	0.996	0.31	0.133	0.12	0.884	0.765	1.04	0.611	0.236
NCI-H1666	0.952	0.989	0.959	0.482	0.384	0.892	0.786	0.811	0.701	0.501	0.791	0.777	0.932	0.226	0.2	0.93	0.903	0.881	0.255	0.223
NCI-H1703	0.379	0.309	0.301	0.382	0.303	0.151	0.0851	0.114	0.147	0.0896	1.07	0.438	0.252	0.0867	0.0799	0.41	0.344	0.412	0.321	0.276
NCI-H1734	0.81	0.863	0.9	0.785	0.628	0.524	0.508	0.537	0.184	0.12	0.898	0.674	0.814	0.192	0.129	0.682	0.619	–	0.57	0.511
NCI-H1755	0.913	0.937	0.886	0.908	0.961	0.448	0.471	0.396	0.296	0.184	1.01	0.955	1	0.323	0.149	0.871	0.906	0.871	0.871	0.889
NCI-H1793	0.602	0.743	0.758	0.609	0.675	0.412	0.373	0.452	0.129	0.0904	0.771	0.723	0.808	0.778	0.149	0.702	0.629	0.885	0.678	0.795
NCI-H1915	1.07	1.09	1.06	1.06	1.07	0.76	0.698	0.754	0.304	0.352	1.13	1.13	1.01	1.07	0.0602	1.05	0.965	0.993	1.08	1.05
